Source: patent publication US9758445B2, “Preparation of surfactants via cross-metathesis” (MATERIA, INC., priority 2013, dated 2017)
Where two headings read alike, the source gives them in different places.

Tests used:
[1] = Surfactant Foaming Test in tap water; type: physicochemical; design: key: A: No Foam Generated; B: Small Volume of Foam Generated; C: Large Volume of Foam Generated; details: surfactant 0.023 wt %, tap water 7.0 mL, 23° C., shaken vigorously, foaming recorded after standing 3 minutes
Experimental: To a 20 mL scintillation vial was added surfactant (0.023 wt %) and tap water (7.0 mL, 23° C.). The vial was sealed and the solution was shaken vigorously. The solution was allowed to stand for 3 minutes and foaming was recorded.

[2] = Krafft Point from the abrupt increase in electrical conductivity as a function of temperature; type: physicochemical
Experimental: Krafft Point or Krafft Temperature is defined as the […]. Surfactants form micelles above their Krafft Point and the solubility in water increases abruptly. The Krafft point was determined by the abrupt increase in the electrical conductivity of as a function of temperature. The intersection of the two solubility lines is the Krafft Point.

[3] = Critical Micelle Concentration (CMC) from the electrical conductivity-concentration curve at constant temperature; type: physicochemical
Experimental: The Critical Micelle Concentration (CMC) is defined as the concentration of surfactants above which micelles form and all additional surfactants added to the system go to micelles. The CMC is measured by the electrical conductivity-concentration curve at constant temperature.

[4] = Surface tension above CMC; type: physicochemical
[5] = at 20° C.; purity 91%; N. M. van Os et al. Tenside Surf. Det. 1992, 29 175; cited from earlier work
[6] = purity 91%; N. M. van Os et al. Tenside Surf. Det. 1992, 29 175; cited from earlier work

| Surfactant Foaming Test Results [1] | SMILES | other results |
| --- | --- | --- |
| C | CCCCCCCCC(C)c1ccc(COCCOCCOCCO)cc1 (centres unmarked) [R=CH2O(CH2CH2O)3H; n=7, 2-(2-(2-((4-(Decan-2-yl)benzyl)oxy)ethoxy)ethoxy)ethanol] | – |
| B | CCCCCCCCCCCC(C)c1ccc(COCCOCCOCCOCCOC)cc1 (centres unmarked) [R=CH2O(CH2CH2O)4CH3; n=10, 1-(4-(Tridecan-2-yl)phenyl)-2,5,8,11,14-pentaoxapentadecane] | – |
| C | CCCCCCCCC(C)c1ccc(COCCOCCOCCOCCOC)cc1 (centres unmarked) [R=CH2O(CH2CH2O)4CH3; n=7, 1-(4-(Decan-2-yl)phenyl)-2,5,8,11,14-pentaoxapentadecane] | – |
| C | CCCCCCCCCCC(C)c1ccc(COCCOCCOCCO)cc1 (centres unmarked) [R=CH2O(CH2CH2O)3H; n=9, 2-(2-(2-((4-(dodecan-2-yl)benzyl)oxy)ethoxy)ethoxy)ethanol] | – |
| – | CCCCCCCCCCC(C)c1ccc(S(=O)(=O)O)cc1 (centres unmarked) [2-PhC12 LAS, sodium 4-(dodecan-2-yl)benzenesulfonate] | Krafft Point [2]: 22.5 °C; CMC (mmol/L) at Temp (° C.) ([3]; at 22.5° C.): 2.1 at 22.5 °C mmol/L; Surface Tension [4]: 41 dynes/cm |
| C | CCCCCCCCCCC(C)c1ccc(COCCOCCOCCOCCO)cc1 (centres unmarked) [R=CH2O(CH2CH2O)4H; n=9, 1-(4-(Dodecan-2-yl)phenyl)-2,5,8,11-tetraoxatridecan-13-ol] | – |
| C | CCCCCCCCCCCC(C)c1ccc(COCCOCCOCCO)cc1 (centres unmarked) [R=CH2O(CH2CH2O)3H; n=10, 2-(2-(2-((4-(tridecan-2-yl)benzyl)oxy)ethoxy)ethoxy)ethanol] | – |
| B | CCCCCCCCCCCCCCC(C)c1ccc(COCCOCCOCCOCCOC)cc1 (centres unmarked) [R=CH2O(CH2CH2O)4CH3; n=13, 1-(4-(Hexadecan-2-yl)phenyl)-2,5,8,11,14-pentaoxapentadecane] | – |
| C | CCCCCCCCCCCCC(C)c1ccc(COCCOCCOCCO)cc1 (centres unmarked) [R=CH2O(CH2CH2O)3H; n=11, 2-(2-(2-((4-(tetradecan-2-yl)benzyl)oxy)ethoxy)ethoxy)ethanol] | – |
| A | CCCCCCCCCCCCCCC(C)c1ccc(COCCO)cc1 (centres unmarked) [R=CH2OCH2CH2OH; n=13, 2-((4-(Hexadecan-2-yl)benzyl)oxy)ethanol] | – |
| C | CCCCCCCCCCCCCCC(C)c1ccc(COCCOC)cc1 (centres unmarked) [R=CH2OCH2CH2OCH3; n=13, 1-(Hexadecan-2-yl)-4-((2-methoxyethoxy)methyl)benzene] | – |
| A | CCCCCCCCCCCC(C)c1ccc(COCCO)cc1 (centres unmarked) [R=CH2OCH2CH2OH; n=10, 2-((4-(Tridecan-2-yl)benzyl)oxy)ethanol] | – |
| A | CCCCCCCCCC(C)c1ccc(COCCO)cc1 (centres unmarked) [R=CH2OCH2CH2OH; n=8, 2-((4-(Undecan-2-yl)benzyl)oxy)ethanol] | – |
| A | CCCCCCCCCCCCCCC(C)c1ccc(CO)cc1 (centres unmarked) [R=CH2OH; n=13, (4-(Hexadecan-2-yl)phenyl)methanol] | – |
| A | CCCCCCCCCCC(C)c1ccc(COCCO)cc1 (centres unmarked) [R=CH2OCH2CH2OH; n=9, 2-((4-(Dodecan-2-yl)benzyl)oxy)ethanol] | – |
| – | CCCCCCCCCC(C)c1ccc(S(=O)(=O)O)cc1 (centres unmarked) [2-PhC11 LAS, sodium 4-(undecan-2-yl)benzenesulfonate] | Krafft Point [2]: 23.0 °C; CMC (mmol/L) at Temp (° C.) ([3]; at 22.0° C.): 1.9 at 22.0 °C mmol/L; Surface Tension [4]: 43 dynes/cm |
| C | CCCCCCCCCCCC(C)c1ccc(COCCOCCOCCOCCO)cc1 (centres unmarked) [R=CH2O(CH2CH2O)4H; n=10, 1-(4-(Tridecan-2-yl)phenyl)-2,5,8,11-tetraoxatridecan-13-ol] | – |
| B | CCCCCCCCCCCCC(C)c1ccc(COCCOCCOCCOCCOC)cc1 (centres unmarked) [R=CH2O(CH2CH2O)4CH3; n=11, 1-(4-(Tetradecan-2-yl)phenyl)-2,5,8,11,14-pentaoxapentadecane] | – |

| Surfactant Foaming Test Results [1] | SMILES | other results |
| --- | --- | --- |
| B | CCCCCCCCC(C)c1ccc(COCCOC)cc1 (centres unmarked) [R=CH2OCH2CH2OCH3; n=7, 1-(Decan-2-yl)-4-((2-methoxyethoxy)methyl)benzene] | – |
| C | CCCCCCCCCC(C)c1ccc(COCCOCCOCCO)cc1 (centres unmarked) [R=CH2O(CH2CH2O)3H; n=8, 2-(2-(2-((4-(undecan-2-yl)benzyl)oxy)ethoxy)ethoxy)ethanol] | – |
| C | CCCCCCCCCCC(C)c1ccc(COCCOCCOCCOCCOC)cc1 (centres unmarked) [R=CH2O(CH2CH2O)4CH3; n=9, 1-(4-(Dodecan-2-yl)phenyl)-2,5,8,11,14-pentaoxapentadecane] | – |
| A | CCCCCCCCCCCCCCC(C)c1ccccc1 (centres unmarked) [R=H; n=13, 2-Phenylhexadecane] | – |
| A | CCCCCCCCC(C)c1ccc(COCCOCCOCCOC)cc1 (centres unmarked) [R=CH2O(CH2CH2O)3CH3; n=7, 1-(4-(Decan-2-yl)phenyl)-2,5,8,11-tetraoxadodecane] | – |
| – | CCCCCCCCCCCCCCC(C)c1ccc(S(=O)(=O)O)cc1 (centres unmarked) [2-PhC16 LAS, sodium 4-(hexadecan-2-yl)benzenesulfonate] | Krafft Point [2]: 45.0 °C; CMC (mmol/L) at Temp (° C.) ([3]; at 44.0° C.): 1.5 at 44.0 °C mmol/L; Surface Tension [4]: 44 dynes/cm |
| B | CCCCCCCCCCC(C)c1ccc(COCCOCCOCCOC)cc1 (centres unmarked) [R=CH2O(CH2CH2O)3CH3; n=9, 1-(4-(Dodecan-2-yl)phenyl)-2,5,8,11-tetraoxadodecane] | – |
| C | CCCCCCCCCCCCCCC(C)c1ccc(COCCOCCOCCOCCO)cc1 (centres unmarked) [R=CH2O(CH2CH2O)4H; n=13, 1-(4-(Hexadecan-2-yl)phenyl)-2,5,8,11-tetraoxatridecan-13-ol] | – |
| A | CCCCCCCCCCCCC(C)c1ccccc1 (centres unmarked) [R=H; n=11, 2-phenyltetradecane] | – |
| – | CCCCCCCCC(C)c1ccc(S(=O)(=O)O)cc1 (centres unmarked) [2-PhC10 LAS, sodium 4-(decan-2-yl)benzenesulfonate] | Krafft Point [2]: 22.5 °C; CMC (mmol/L) at Temp (° C.) [5]: 4.5 at 20 °C mmol/L; CMC (mmol/L) at Temp (° C.) ([3]; at 22.0° C.): 4.4 at 22.0 °C mmol/L; Krafft Point [6]: 22.0 °C (NR^2); Surface Tension [4]: 43 dynes/cm |
| B | CCCCCCCCCCCCC(C)c1ccc(COCCOCCOCCOC)cc1 (centres unmarked) [R=CH2O(CH2CH2O)3CH3; n=11, 1-(4-(Tetradecan-2-yl)phenyl)-2,5,8,11-tetraoxadodecane] | – |
| C | CCCCCCCCCCCCC(C)c1ccc(COCCOCCOCCOCCO)cc1 (centres unmarked) [R=CH2O(CH2CH2O)4H; n=11, 1-(4-(Tetradecan-2-yl)phenyl)-2,5,8,11-tetraoxatridecan-13-ol] | – |
| A | CCCCCCCCCCCCC(C)c1ccc(COCCO)cc1 (centres unmarked) [R=CH2OCH2CH2OH; n=11, 2-((4-(Tetradecan-2-yl)benzyl)oxy)ethanol] | – |
| C | CCCCCCCCCCCC(C)c1ccc(COCCOC)cc1 (centres unmarked) [R=CH2OCH2CH2OCH3; n=10, 1-((2-Methoxyethoxy)methyl)-4-(tridecan-2-yl)benzene] | – |
| C | CCCCCCCCCCCCC(C)c1ccc(COCCOC)cc1 (centres unmarked) [R=CH2OCH2CH2OCH3; n=11, 1-((2-Methoxyethoxy)methyl)-4-(tetradecan-2-yl)benzene] | – |
| B | CCCCCCCCCC(C)c1ccc(COCCOCCOCCOCCOC)cc1 (centres unmarked) [R=CH2O(CH2CH2O)4CH3; n=8, 1-(4-(Undecan-2-yl)phenyl)-2,5,8,11,14-pentaoxapentadecane] | – |
| A | CCCCCCCCCC(C)c1ccc(CO)cc1 (centres unmarked) [R=CH2OH; n=8, (4-(Undecan-2-yl)phenyl)methanol] | – |
| A | CCCCCCCCCCCCC(C)c1ccc(CO)cc1 (centres unmarked) [R=CH2OH; n=11, (4-(Tetradecan-2-yl)phenyl)methanol] | – |

| SMILES | Surfactant Foaming Test Results [1] | other results |
| --- | --- | --- |
| CCCCCCCCCCC(C)c1ccccc1 (centres unmarked) [R=H; n=9, 2-Phenyldodecane] | A | – |
| CCCCCCCCCCCC(C)c1ccc(CO)cc1 (centres unmarked) [R=CH2OH; n=10, (4-(Tridecan-2-yl)phenyl)methanol] | A | – |
| CCCCCCCCCC(C)c1ccc(COCCOCCOCCOCCO)cc1 (centres unmarked) [R=CH2O(CH2CH2O)4H; n=8, 1-(4-(Undecan-2-yl)phenyl)-2,5,8,11-tetraoxatridecan-13-ol] | C | – |
| CCCCCCCCC(C)c1ccc(CO)cc1 (centres unmarked) [R=CH2OH; n=7, (4-(Decan-2-yl)phenyl)methanol] | A | – |
| CCCCCCCCCCC(C)c1ccc(CO)cc1 (centres unmarked) [R=CH2OH; n=9, (4-(Dodecan-2-yl)phenyl)methanol] | A | – |
| CCCCCCCCCC(C)c1ccccc1 (centres unmarked) [R=H; n=8, 2-Phenylundecane] | A | – |
| CCCCCCCCCCCC(C)c1ccccc1 (centres unmarked) [R=H; n=10, 2-phenyltridecane] | A | – |
| CCCCCCCCC(C)c1ccc(COCCOCCOCCOCCO)cc1 (centres unmarked) [R=CH2O(CH2CH2O)4H; n=7, 1-(4-(Decan-2-yl)phenyl)-2,5,8,11-tetraoxatridecan-13-ol] | C | – |
| CCCCCCCCC(C)c1ccc(COCCO)cc1 (centres unmarked) [R=CH2OCH2CH2OH; n=7, 2-((4-(Decan-2-yl)benzyl)oxy)ethanol] | A | – |
| CCCCCCCCC(C)c1ccccc1 (centres unmarked) [R=H; n=7, 2-Phenyldecane] | A | – |
